Test results as given in PubChem BioAssay AID1963986 (Molecular Pharmacology Branch, DTP, NCI, 2024).

Test system: 171881-019-R-J1-PDC tumor spheroid viability
Experiment: Anticancer human tumor 171881-019-R-J1-PDC patient-derived invasive breast carcinoma cell line growth inhibition [PI3K]
Conditions: spheroids with HUVEC and MSC; for IC50: curve of first compound; for viability, T/C: stronger effect = lower value
Method in brief: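 Multi-cell spheroids combine tumor cells with HUVEC and human MSCs, treated with targeted agents alone or with inavolisib, alpelisib, duvelisib or copanlisib. Concentrations fall in half-log steps from at or near clinical Cmax, or from 10 microM where Cmax is unknown; viability read-out.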

[1] = second compound 0.0316 µM, first compound 0.0316 µM
[2] = second compound 0.0316 µM, first compound 0.1 µM
[3] = second compound 0.0316 µM, first compound 0.316 µM
[4] = second compound 0.0316 µM, first compound 1 µM
[5] = second compound 0.0316 µM, first compound 3.16 µM
[6] = second compound 0.0316 µM, first compound 10 µM
[7] = second compound 0.1 µM, first compound 0.0316 µM
[8] = second compound 0.1 µM, first compound 0.1 µM
[9] = second compound 0.1 µM, first compound 0.316 µM
[10] = second compound 0.1 µM, first compound 1 µM
[11] = second compound 0.1 µM, first compound 3.16 µM
[12] = second compound 0.1 µM, first compound 10 µM
[13] = second compound 0.316 µM, first compound 0.0316 µM
[14] = second compound 0.316 µM, first compound 0.1 µM
[15] = second compound 0.316 µM, first compound 0.316 µM
[16] = second compound 0.316 µM, first compound 1 µM
[17] = second compound 0.316 µM, first compound 3.16 µM
[18] = second compound 0.316 µM, first compound 10 µM
[19] = second compound 1 µM, first compound 0.0316 µM
[20] = second compound 1 µM, first compound 0.1 µM
[21] = second compound 1 µM, first compound 0.316 µM
[22] = second compound 1 µM, first compound 1 µM
[23] = second compound 1 µM, first compound 3.16 µM
[24] = second compound 1 µM, first compound 10 µM
[25] = second compound 3.16 µM, first compound 0.0316 µM
[26] = second compound 3.16 µM, first compound 0.1 µM
[27] = second compound 3.16 µM, first compound 0.316 µM
[28] = second compound 3.16 µM, first compound 1 µM
[29] = second compound 3.16 µM, first compound 3.16 µM
[30] = second compound 3.16 µM, first compound 10 µM
[31] = second compound 10 µM, first compound 0.0316 µM
[32] = second compound 10 µM, first compound 0.1 µM
[33] = second compound 10 µM, first compound 0.316 µM
[34] = second compound 10 µM, first compound 1 µM
[35] = second compound 10 µM, first compound 3.16 µM
[36] = second compound 10 µM, first compound 10 µM
[37] = second compound 0.0316 µM, first compound 0.00316 µM
[38] = second compound 0.0316 µM, first compound 0.01 µM
[39] = second compound 0.1 µM, first compound 0.00316 µM
[40] = second compound 0.1 µM, first compound 0.01 µM
[41] = second compound 0.316 µM, first compound 0.00316 µM
[42] = second compound 0.316 µM, first compound 0.01 µM
[43] = second compound 1 µM, first compound 0.00316 µM
[44] = second compound 1 µM, first compound 0.01 µM
[45] = second compound 3.16 µM, first compound 0.00316 µM
[46] = second compound 3.16 µM, first compound 0.01 µM
[47] = second compound 10 µM, first compound 0.00316 µM
[48] = second compound 10 µM, first compound 0.01 µM
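Note: spheroids exposed to compound for 7 days before viability read.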
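Throughout, for viability, T/C: 100% = DMSO vehicle-treated spheroids.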

Molecule `CC(C)NCC(C(=O)N1CCN(c2ncnc3c2C(C)CC3O)CC1)c1ccc(Cl)cc1` (stereo not drawn) + Cc1nc(NC(=O)N2CCCC2C(N)=O)sc1-c1ccnc(C(C)(C)C(F)(F)F)c1 has an IC50 (second compound 0.0316 µM) of 276 nM, an IC50 (second compound 0.1 µM) of 262 nM and an IC50 (second compound 0.316 µM) of 72.8 nM. For the same molecule, the IC50 (second compound 1 µM) was less than 31.6 nM, the IC50 (second compound 3.16 µM) was less than 31.6 nM and the IC50 (second compound 10 µM) was less than 31.6 nM. The viability, T/C [1] was 97.9%, the viability, T/C [2] was 68.3% and the viability, T/C [3] was 50.1%. For the same molecule, the viability, T/C [4] was 28.4%, the viability, T/C [5] was 16.7% and the viability, T/C [6] was 9.99%. The viability, T/C [7] was 81.6%, the viability, T/C [8] was 64.3% and the viability, T/C [9] was 49.5%. The viability, T/C [10] was 25.9%, the viability, T/C [11] was 13.6% and the viability, T/C [12] was 8.89%. For the same molecule, the viability, T/C [13] was 55.5%, the viability, T/C [14] was 46.7% and the viability, T/C [15] was 38%. It also gave a viability, T/C [16] of 23.2%, a viability, T/C [17] of 12.6% and a viability, T/C [18] of 8.17%. For the same molecule, the viability, T/C [19] was 32%, the viability, T/C [20] was 31% and the viability, T/C [21] was 28.6%. The viability, T/C [22] was 16.1%, the viability, T/C [23] was 8.99% and the viability, T/C [24] was 7.16%. The viability, T/C [25] was 14.6%, the viability, T/C [26] was 14.8% and the viability, T/C [27] was 12.4%. It also gave a viability, T/C [28] of 8.95%, a viability, T/C [29] of 6.94% and a viability, T/C [30] of 4.98%. For the same molecule, the viability, T/C [31] was 3.06%, the viability, T/C [32] was 3.52% and the viability, T/C [33] was 3.3%. It also gave a viability, T/C [34] of 3.85%, a viability, T/C [35] of 2.77% and a viability, T/C [36] of 1.56%.

`CCN1CCN(Cc2ccc(Nc3ncc(F)c(-c4cc(F)c5nc(C)n(C(C)C)c5c4)n3)nc2)CC1` + Cc1nc(NC(=O)N2CCCC2C(N)=O)sc1-c1ccnc(C(C)(C)C(F)(F)F)c1 showed an IC50 (second compound 0.0316 µM) greater than 1000 nM, an IC50 (second compound 0.1 µM) greater than 1000 nM and an IC50 (second compound 0.316 µM) greater than 1000 nM. It also gave an IC50 (second compound 1 µM) of less than 3.16 nM, an IC50 (second compound 3.16 µM) of less than 3.16 nM and an IC50 (second compound 10 µM) of less than 3.16 nM. The viability, T/C [37] was 102%, the viability, T/C [38] was 92.9% and the viability, T/C [1] was 98.6%. It also gave a viability, T/C [2] of 103%, a viability, T/C [3] of 111% and a viability, T/C [4] of 103%. The viability, T/C [39] was 83.9%, the viability, T/C [40] was 85.8% and the viability, T/C [7] was 91.5%. The viability, T/C [8] was 91.9%, the viability, T/C [9] was 105% and the viability, T/C [10] was 104%. It also gave a viability, T/C [41] of 59.5%, a viability, T/C [42] of 61.1% and a viability, T/C [13] of 72.2%. For the same molecule, the viability, T/C [14] was 73.8%, the viability, T/C [15] was 80.7% and the viability, T/C [16] was 83.3%. The viability, T/C [43] was 37.2%, the viability, T/C [44] was 38.8% and the viability, T/C [19] was 39.1%. The viability, T/C [20] was 45%, the viability, T/C [21] was 53.3% and the viability, T/C [22] was 61.5%. It also gave a viability, T/C [45] of 15.4%, a viability, T/C [46] of 17% and a viability, T/C [25] of 19.5%. For the same molecule, the viability, T/C [26] was 21%, the viability, T/C [27] was 28.6% and the viability, T/C [28] was 42%. For the same molecule, the viability, T/C [47] was 3.79%, the viability, T/C [48] was 4.44% and the viability, T/C [31] was 4.59%. For the same molecule, the viability, T/C [32] was 4.85%, the viability, T/C [33] was 8.73% and the viability, T/C [34] was 14.2%.

`C[C@@H](NC(=O)c1ncnc(N)c1Cl)c1ncc(C(=O)Nc2cc(C(F)(F)F)c(Cl)cn2)s1` + Cc1nc(NC(=O)N2CCCC2C(N)=O)sc1-c1ccnc(C(C)(C)C(F)(F)F)c1 gave an IC50 (second compound 0.0316 µM) of 6100 nM, an IC50 (second compound 0.1 µM) of 3000 nM and an IC50 (second compound 0.316 µM) of 555 nM. For the same molecule, the IC50 (second compound 1 µM) was less than 31.6 nM, the IC50 (second compound 3.16 µM) was less than 31.6 nM and the IC50 (second compound 10 µM) was less than 31.6 nM. For the same molecule, the viability, T/C [1] was 92.6%, the viability, T/C [2] was 83.5% and the viability, T/C [3] was 84.8%. It also gave a viability, T/C [4] of 79.5%, a viability, T/C [5] of 65% and a viability, T/C [6] of 38.7%. For the same molecule, the viability, T/C [7] was 86.2%, the viability, T/C [8] was 82.2% and the viability, T/C [9] was 77.9%. For the same molecule, the viability, T/C [10] was 65.9%, the viability, T/C [11] was 49.2% and the viability, T/C [12] was 30.7%. The viability, T/C [13] was 55.3%, the viability, T/C [14] was 56.6% and the viability, T/C [15] was 51.8%. The viability, T/C [16] was 47.3%, the viability, T/C [17] was 31.9% and the viability, T/C [18] was 17.5%. The viability, T/C [19] was 32.7%, the viability, T/C [20] was 33.3% and the viability, T/C [21] was 31.1%. It also gave a viability, T/C [22] of 24.5%, a viability, T/C [23] of 17.3% and a viability, T/C [24] of 7.53%. It also gave a viability, T/C [25] of 16.2%, a viability, T/C [26] of 15.2% and a viability, T/C [27] of 12.5%. It also gave a viability, T/C [28] of 10.3%, a viability, T/C [29] of 5.29% and a viability, T/C [30] of 2.14%. It also gave a viability, T/C [31] of 4.03%, a viability, T/C [32] of 3.76% and a viability, T/C [33] of 3.28%. The viability, T/C [34] was 2.32%, the viability, T/C [35] was 1.29% and the viability, T/C [36] was 0.49%.

`Cn1ncnc1[C@H]1c2n[nH]c(=O)c3cc(F)cc(c23)N[C@@H]1c1ccc(F)cc1` + Cc1nc(NC(=O)N2CCCC2C(N)=O)sc1-c1ccnc(C(C)(C)C(F)(F)F)c1 showed an IC50 (second compound 0.0316 µM) greater than 100 nM, an IC50 (second compound 0.1 µM) greater than 100 nM and an IC50 (second compound 0.316 µM) greater than 100 nM. For the same molecule, the IC50 (second compound 1 µM) was less than 0.316 nM, the IC50 (second compound 3.16 µM) was less than 0.316 nM and the IC50 (second compound 10 µM) was less than 0.316 nM. The viability, T/C (second compound 0.0316 µM, first compound 0.000316 µM) was 96.5%, the viability, T/C (second compound 0.0316 µM, first compound 0.001 µM) was 91% and the viability, T/C [37] was 84.8%. For the same molecule, the viability, T/C [38] was 88.8%, the viability, T/C [1] was 86.3% and the viability, T/C [2] was 79.8%. For the same molecule, the viability, T/C (second compound 0.1 µM, first compound 0.000316 µM) was 86.7%, the viability, T/C (second compound 0.1 µM, first compound 0.001 µM) was 65.1% and the viability, T/C [39] was 76.4%. For the same molecule, the viability, T/C [40] was 73.1%, the viability, T/C [7] was 74.1% and the viability, T/C [8] was 66.6%. For the same molecule, the viability, T/C (second compound 0.316 µM, first compound 0.000316 µM) was 50.2%, the viability, T/C (second compound 0.316 µM, first compound 0.001 µM) was 56.3% and the viability, T/C [41] was 51.6%. The viability, T/C [42] was 56.4%, the viability, T/C [13] was 55% and the viability, T/C [14] was 46.6%. The viability, T/C (second compound 1 µM, first compound 0.000316 µM) was 32.8%, the viability, T/C (second compound 1 µM, first compound 0.001 µM) was 32.8% and the viability, T/C [43] was 29.4%. The viability, T/C [44] was 31.6%, the viability, T/C [19] was 29.6% and the viability, T/C [20] was 27.4%. It also gave a viability, T/C (second compound 3.16 µM, first compound 0.000316 µM) of 13.4%, a viability, T/C (second compound 3.16 µM, first compound 0.001 µM) of 14% and a viability, T/C [45] of 12.8%. The viability, T/C [46] was 13.4%, the viability, T/C [25] was 13.3% and the viability, T/C [26] was 12.1%. It also gave a viability, T/C (second compound 10 µM, first compound 0.000316 µM) of 3.72%, a viability, T/C (second compound 10 µM, first compound 0.001 µM) of 3.81% and a viability, T/C [47] of 4.27%. It also gave a viability, T/C [48] of 3.81%, a viability, T/C [31] of 3.35% and a viability, T/C [32] of 2.96%.
